Reference: patent US20260250318A1, “COMPOSITIONS AND METHODS FOR CROSSING THE BLOOD BRAIN BARRIER” (VOYAGER THERAPEUTICS, INC., priority 2022, published 2026)

Key:
brain = test: Matured TTM-001 and TTM-002 variants, NGS enrichment in mouse brain; format: in vivo, mice; settings: relative to AAV9 control
[1] = tested on: brains, heart, liver, muscle, and DRG of the NHPs; test: Maturation of TTM-001 and TTM-002 capsids, NGS enrichment in NHP tissues; format: in vivo; settings: relative to AAV9 control
In short: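 Variants carry mutations within and flanking the loop IV peptide insert: positions 450–466 were triplet-randomized, while positions 449–466 received low-frequency point mutations. The combined pool went into two NHPs, and each peptide was scored by NGS enrichment ratio against AAV9.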

[2] = NGS fold-enrichment, mouse brain
[3] = NGS fold-enrichment of RNA, NHP brain
[4] = NGS fold-enrichment, NHP liver DNA
[5] = NGS fold-enrichment, NHP liver RNA
[6] = NGS fold-enrichment, NHP muscle
[7] = NGS fold-enrichment of matured AAV capsid variants, NHP brain, RNA
[8] = NGS fold-enrichment, brain of mice
[9] = NGS fold-enrichment, DRG of NHPs
[10] = NGS fold-enrichment, RNA, brain of NHPs
[11] = NGS fold-enrichment, heart of NHPs
[12] = NGS fold-enrichment, liver DNA of NHPs
[13] = NGS fold-enrichment, liver RNA of NHPs
[14] = NGS fold-enrichment, muscle of NHPs

Row | Sequence | Fold Enrichment relative to AAV9, Brain (Mouse) (brain; [2]) [fold] | Fold Enrichment relative to AAV9, Brain (NHP) [1, 3] [fold] | Fold Enrichment relative to AAV9, DRG (NHP) ([1]; NGS fold-enrichment, NHP DRG) [fold] | Fold Enrichment relative to AAV9, Heart (NHP) ([1]; NGS fold-enrichment, NHP heart) [fold] | Fold Enrichment relative to AAV9, Liver DNA (NHP) [1, 4] [fold] | Fold Enrichment relative to AAV9, Liver RNA (NHP) [1, 5] [fold] | Fold Enrichment relative to AAV9, Muscle (NHP) [1, 6] [fold] | Fold Enrichment relative to AAV9, Brain (Mouse) (brain; mouse brain) [fold] | Fold Enrichment relative to AAV9, Brain (NHP) [1, 7] [fold] | Fold Enrichment relative to AAV9, DRG (NHP) ([1]; NHP DRG) [fold] | Fold Enrichment relative to AAV9, Heart (NHP) ([1]; NHP heart) [fold] | Fold Enrichment relative to AAV9, Liver DNA (NHP) ([1]; NHP liver, DNA) [fold] | Fold Enrichment relative to AAV9, Liver RNA (NHP) ([1]; NHP liver, RNA) [fold] | Fold Enrichment relative to AAV9, Muscle (NHP) ([1]; NHP muscle) [fold] | also measured
1 | KAINGYDSPHKSGQKQQT | 13.057 | 83.803 | 0.041 | 9.491 | 0.150 | 0.031 | 0.000 | – | – | – | – | – | – | – | –
2 | KAINRSGSPHSKAQDQQT | – | – | – | – | – | – | – | 54.631 | 51.262 | 0.000 | 0.000 | 0.036 | 0.000 | 0.000 | –
3 | KAISGHDSPHKSGLNQQT | 11.045 | 78.846 | 0.000 | 0.079 | 0.015 | 0.000 | 0.000 | – | – | – | – | – | – | – | –
4 | KATNGSGSPHSKAQNHQT | 66.207 | 82.627 | 0.000 | 0.176 | 0.057 | 0.155 | 0.000 | – | – | – | – | – | – | – | Fold Enrichment relative to AAV9, Brain (Mouse) (brain; [8]): 66.207 fold; Fold Enrichment relative to AAV9, DRG (NHP) [1, 9]: 0.000 fold; Fold Enrichment relative to AAV9, Brain (NHP) [1, 10]: 82.627 fold; Fold Enrichment relative to AAV9, Heart (NHP) [1, 11]: 0.176 fold; Fold Enrichment relative to AAV9, Liver DNA (NHP) [1, 12]: 0.057 fold; Fold Enrichment relative to AAV9, Liver RNA (NHP) [1, 13]: 0.155 fold; Fold Enrichment relative to AAV9, Muscle (NHP) [1, 14]: 0.000 fold
5 | KAVNGHDSPHKSVQNQQT | 11.288 | 81.051 | 0.448 | 0.051 | 0.091 | 0.665 | 0.000 | – | – | – | – | – | – | – | –
6 | KAVNVSGSPHSKAQNQQT | – | – | – | – | – | – | – | 57.835 | 54.586 | 0.000 | 0.000 | 0.023 | 0.000 | 0.000 | –
7 | KEFVGSGSPHSKAQNQQT | – | – | – | – | – | – | – | 128.675 | 58.374 | 0.000 | 0.046 | 0.326 | 0.088 | 0.000 | –
8 | KEINGRGSPHSKAQNQQT | 52.311 | 134.390 | 0.239 | 0.000 | 0.232 | 0.000 | 0.000 | – | – | – | – | – | – | – | Fold Enrichment relative to AAV9, Brain (Mouse) (brain; [8]): 52.311 fold; Fold Enrichment relative to AAV9, DRG (NHP) [1, 9]: 0.239 fold; Fold Enrichment relative to AAV9, Brain (NHP) [1, 10]: 134.390 fold; Fold Enrichment relative to AAV9, Heart (NHP) [1, 11]: 0.000 fold; Fold Enrichment relative to AAV9, Liver DNA (NHP) [1, 12]: 0.232 fold; Fold Enrichment relative to AAV9, Liver RNA (NHP) [1, 13]: 0.000 fold; Fold Enrichment relative to AAV9, Muscle (NHP) [1, 14]: 0.000 fold
